From ChEMBL document CHEMBL4038322, “Interactions between β2-Adrenoceptor Ligands and Membrane: Atomic-Level Insights from Magic-Angle Spinning NMR” (J Med Chem, 2017)
The source made the active and inactive calls. The calls are words filed in the database; no cut-off is given here.

How the values were obtained:
Lipid bilayer [1] = assay: Binding affinity to POPC liposome membrane assessed as cross-relaxation rate of E proton with C-3/C-2 region of lipid at compound to POPC molar ratio of 1:10 by NOESY 1H NMR analysis
Lipid bilayer [2] = assay: Binding affinity to POPC liposome membrane assessed as 31P chemical shift anisotropy at compound to POPC molar ratio of 1:10 by NMR analysis (reference value: 28.9 ppm)
[3] = Lipophilicity of the compound assessed as capacity factor (CHI IAM7.4) at pH 7.4 by chromatographic analysis; format: physicochemical; settings: buffer
Lipid bilayer [4] = assay: Binding affinity to POPC liposome membrane in liquid disorder phase assessed as change in cross-relaxation rate of hydrophilic group B protons with G-1 segment at compound to POPC molar ratio of 1:10 to 1:5 by 1D 1H […] analysis
Lipid bilayer [5] = assay: Binding affinity to POPC liposome membrane in liquid disorder phase assessed as change in cross-relaxation rate of hydrophilic group B protons with G-3 segment at compound to POPC molar ratio of 1:10 to 1:5 by 1D 1H […] analysis
[6] = n-octanol/PBS/sodium carbonate partition coefficient, log P of the compound after 4 hrs; format: physicochemical
Lipid bilayer [7] = assay: Binding affinity to POPC liposome membrane assessed as cross-relaxation rate of F proton with C-3/C-2 region of lipid at compound to POPC molar ratio of 1:10 by NOESY 1H NMR analysis
Lipid bilayer [8] = assay: Binding affinity to POPC liposome membrane at compound to POPC molar ratio of 1:10 after 300 milliseconds by NOESY 1H NMR analysis
Lipid bilayer [9] = assay: Binding affinity to POPC liposome membrane assessed as cross-relaxation rate of H proton with C-3/C-2 region of lipid at compound to POPC molar ratio of 1:10 by NOESY 1H NMR analysis
Lipid bilayer [10] = assay: Binding affinity to POPC liposome membrane at compound to POPC molar ratio of 1:10 after 3 milliseconds by 2D NOESY NMR analysis
Lipid bilayer [11] = assay: Binding affinity to POPC liposome membrane in liquid disorder phase assessed as broadening of POPC signals at compound to POPC molar ratio of 1:5 by 1D 1H […] analysis
Lipid bilayer [12] = assay: Binding affinity to POPC liposome membrane at compound to POPC molar ratio of 1:10 after 3 milliseconds in presence of Mn2+ by 2D NOESY NMR analysis
Lipid bilayer [13] = assay: Binding affinity to POPC liposome membrane assessed as 31P chemical shift anisotropy at compound to POPC molar ratio of 1:10 in presence of Mn2+ by NMR analysis
Lipid bilayer [14] = assay: Binding affinity to POPC liposome membrane in liquid disorder phase assessed as change in cross-relaxation rate of lypophilic group E protons with C2/C3 segment at compound to POPC molar ratio of 1:10 to 1:5 by 1D 1H […] analysis
Lipid bilayer [15] = assay: Binding affinity to POPC liposome membrane assessed as cross-relaxation rate of E protons with (CH2)n segment at compound to POPC molar ratio of 1:10 by NOESY 1H NMR analysis
Lipid bilayer [16] = assay: Binding affinity to POPC liposome membrane assessed as cross-relaxation rate of F protons with segment gamma at compound to POPC molar ratio of 1:10 by NOESY 1H NMR analysis; design: scale not given: the % may be the effect or the level left
Lipid bilayer [17] = assay: Binding affinity to POPC liposome membrane assessed as cross-relaxation rate of F protons with segment G-3 at compound to POPC molar ratio of 1:10 by NOESY 1H NMR analysis; design: scale not given: the % may be the effect or the level left
Lipid bilayer [18] = assay: Binding affinity to POPC liposome membrane assessed as cross-relaxation rate of F protons with segment alpha at compound to POPC molar ratio of 1:10 by NOESY 1H NMR analysis; design: scale not given: the % may be the effect or the level left
Lipid bilayer [19] = assay: Binding affinity to POPC liposome membrane assessed as cross-relaxation rate of F protons with segment beta at compound to POPC molar ratio of 1:10 by NOESY 1H NMR analysis; design: scale not given: the % may be the effect or the level left
Lipid bilayer [20] = assay: Binding affinity to POPC liposome membrane assessed as cross-relaxation rate of E protons with CH2-C= segment at compound to POPC molar ratio of 1:10 by NOESY 1H NMR analysis
Lipid bilayer [21] = assay: Binding affinity to POPC liposome membrane assessed as cross-relaxation rate of E protons with C2/C3 segment at compound to POPC molar ratio of 1:10 by NOESY 1H NMR analysis
Lipid bilayer [22] = assay: Binding affinity to POPC liposome membrane assessed as cross-relaxation rate of F protons with lipid acyl CH3 at compound to POPC molar ratio of 1:10 by NOESY 1H NMR analysis; design: scale not given: the % may be the effect or the level left

Row | SMILES | Activity (Lipid bilayer [1]) | Activity (Lipid bilayer [2]) [ppm] | CHI [3] | Activity (Lipid bilayer [4]) | Activity (Lipid bilayer [5]) | logP at 4 h [6] | other results
1 | O=c1ccc2c([C@@H](O)CNC3Cc4ccccc4C3)ccc(O)c2[nH]1 | Active | 32 to 33.6 | 41.6 | Active | Active | 1.55 | –
2 | CCc1ccc(CC)c2c1CC(NC[C@H](O)c1ccc(O)c3[nH]c(=O)ccc13)C2 | – | 32 to 33.6 | 58.9 | – | – | 3.03 | Activity (Lipid bilayer [7]): Active
3 | COc1ccc(CC(C)NCC(O)c2ccc(O)c(NC=O)c2)cc1 (stereo not drawn) | – | 32 to 33.6 | – | – | – | – | Activity (Lipid bilayer [8]): Active; Activity (Lipid bilayer [9]): Active
4 | CCc1cc2c(cc1CC)CC(NC[C@H](O)c1ccc(O)c3[nH]c(=O)ccc13)C2 [INDACATEROL] | Active | 32 to 33.6 | 62.5 | Active | Active | 3.05 | Activity (Lipid bilayer [10]): Active; Activity (Lipid bilayer [11]): 20 to 40%; Activity (Lipid bilayer [12]): Active; Activity (Lipid bilayer [13]): Active; Activity (Lipid bilayer [14]): Active
5 | OCc1cc(C(O)CNCCCCCCOCCCCc2ccccc2)ccc1O (stereo not drawn) [SALMETEROL] | < 0.0025 s⁻¹ | 32 to 33.6 | 56.7 | Active | Active | 3.08 | Activity (Lipid bilayer [15]): Active; Activity (Lipid bilayer [16]): 43%; Activity (Lipid bilayer [17]): 49%; Activity (Lipid bilayer [18]): 69%; Activity (Lipid bilayer [19]): 26%; Activity (Lipid bilayer [20]): Active; Activity (Lipid bilayer [21]): Active; Activity (Lipid bilayer [22]): 58%
